Reference: patent US20250312362A1, “INHIBITORS OF MsbA AS ANTIBIOTICS, PHARMACEUTICAL COMPOSITIONS, AND USES THEREOF” (Merck Sharp & Dohme LLC, priority 2022, published 2025)
In brackets after ≈: the same amount, converted by molar mass.

Test system: various strains of bacteria
Test: Antimicrobial potency: bacterial growth inhibition by OD600 (Antibacterial assay 1)
Format: cell-based
Settings: read-out: Antibacterial assay 1 (MITC95)
Description: The concentrations of compounds required to inhibit the growth of various strains of bacteria were determined in an assay that assessed bacterial growth by measuring optical density at 600 nm (OD600). Test articles were dissolved in 100% DMSO and serially diluted two-fold from their maximal concentration in 100% DMSO. Forty-nine μl of bacterial inoculum (at approx. 2×10^5 cfu/mL in CAMHB) were put into wells of an assay plate. One μl of compound or DMSO was transferred from the source plate to the assay plate. The completed assay plates were then incubated at 35±2 degC. for 18-22 h. Bacterial growth was measured by reading OD600 on a spectrophotometer. Data analysis calculates the lowest concentration of compound which results in ≥95% growth inhibition (minimum inhibitory threshold concentration 95%, MITC95).

SMILES | MIC
CCCCc1ccc(S(=O)(=O)Nc2ccc(NC(=O)CCC(=O)Nc3ccc(NS(=O)(=O)c4ccc(CCCC)cc4)c(P(=O)(O)O)c3)cc2C(=O)O)cc1 [Compound 1, 2-((4-butylphenyl)sulfonamido)-5-(4-((4-((4-butylphenyl)sulfonamido)-3-phosphonophenyl)amino)-4-oxobutanamido)benzoic acid] | 1.56 µM (≈ 1.27 µg/mL)
CCCCc1ccc(S(=O)(=O)Nc2ccc(NC(=O)CCC(=O)Nc3ccc(NS(=O)(=O)c4ccc(CCCC)cc4)c(C(=O)O)c3)cc2C(=O)O)cc1 [Compound 2, 5,5′-(succinylbis(azanediyl))bis(2-((4-butylphenyl)sulfonamido)benzoic acid)] | 0.0568 µM (≈ 0.0442 µg/mL)
CCCCc1ccc(S(=O)(=O)Nc2ccc(NC(=O)CCC(=O)Nc3cnc(NS(=O)(=O)c4ccc(CCCC)cc4)c(C(=O)O)c3)cc2C(=O)O)cc1 [Compound 3, 2-((4-butylphenyl)sulfonamido)-5-(4-((4-((4-butylphenyl)sulfonamido)-3-carboxyphenyl)amino)-4-oxobutanamido)nicotinic acid] | 0.621 µM (≈ 0.484 µg/mL)
O=C(CCCOc1ccc(NS(=O)(=O)c2ccc(-c3ccc(Cl)cc3)s2)c(C(=O)O)c1)Nc1ccc(NS(=O)(=O)c2ccc(-c3ccc(Cl)cc3)s2)c(C(=O)O)c1 [Compound 4, 5-(4-(3-Carboxy-4-((5-(4-chlorophenyl)thiophene)-2-sulfonamido)phenoxy)-butanamido)-2-((5-(4-chlorophenyl)thiophene)-2-sulfonamido)benzoic acid] | 0.0122 µM (≈ 0.0108 µg/mL)
O=C(CCCOc1ccc(NS(=O)(=O)c2cnn(-c3ccc(Cl)cc3)c2)c(C(=O)O)c1)Nc1ccc(NS(=O)(=O)c2ccc(-c3cc(Cl)cc(Cl)c3)cc2)c(C(=O)O)c1 [Compound 5] | 0.0122 µM (≈ 0.011 µg/mL)
O=C(CCCOc1ccc(NS(=O)(=O)c2cnn(-c3ccc(Cl)cc3)c2)c(C(=O)O)c1)Nc1ccc(NS(=O)(=O)c2ccc(-c3ccc(F)cc3)cc2)c(C(=O)O)c1 [Compound 6] | 0.0173 µM (≈ 0.0147 µg/mL)
Cc1c(S(=O)(=O)Nc2ccc(NC(=O)CCCOc3ccc(NS(=O)(=O)c4cnn(-c5ccc(Cl)cc5)c4)c(C(=O)O)c3)cc2C(=O)O)sc2ccc(Cl)cc12 [Compound 7] | 0.0122 µM (≈ 0.0105 µg/mL)
CCCCc1ccc(S(=O)(=O)Nc2ccc(NC(=O)CCCOc3ccc(NS(=O)(=O)c4sc(-c5ccccc5)nc4C)c(C(=O)O)c3)cc2C(=O)O)cc1 [Compound 8] | 0.0173 µM (≈ 0.014 µg/mL)
O=C(CCCOc1ccc(NS(=O)(=O)c2ccc(Oc3ccc(Cl)cc3)nc2)c(C(=O)O)c1)Nc1ccc(NS(=O)(=O)c2ccc(Oc3ccc(Cl)cc3)nc2)c(C(=O)O)c1 [Compound 9] | 0.0122 µM (≈ 0.0111 µg/mL)
CCCCc1ccc(S(=O)(=O)Nc2ccc(OCCCC(=O)Nc3ccc(NS(=O)(=O)c4ccc(CCCC)cc4)c(C(=O)O)n3)cc2C(=O)O)cc1 [Compound 10] | 0.985 µM (≈ 0.755 µg/mL)
O=C(CCCOc1ccc(NS(=O)(=O)c2cnn(-c3ccc(Cl)cc3)c2)c(C(=O)O)c1)Nc1ccc(NC(=O)Cc2ccc(-c3ccc(F)cc3)cc2)c(C(=O)O)c1 [Compound 11] | 0.0489 µM (≈ 0.0404 µg/mL)
O=C(CCCOc1ccc(NS(=O)(=O)c2cnn(-c3ccc(Cl)cc3)c2)c(C(=O)O)c1)Nc1ccc(NC(=O)Cc2cccc(-c3ccc(F)cc3)c2)c(C(=O)O)c1 [Compound 12] | 0.0489 µM (≈ 0.0404 µg/mL)
O=C(COc1ccc(NS(=O)(=O)c2cnn(-c3ccc(Cl)cc3)c2)c(C(O)O)c1)Nc1ccc(NC(=O)C(=O)NCc2ccc(Cl)cc2)c(C(=O)O)c1 [Compound 13] | 0.0978 µM (≈ 0.0766 µg/mL)
O=C(Nc1ccc(NS(=O)(=O)c2cnn(-c3ccc(F)cc3)c2)c(C(=O)O)c1)Nc1ccc(NS(=O)(=O)c2cnn(-c3ccc(F)cc3)c2)c(C(=O)O)c1 [Compound 14, 5-(3-(3-carboxy-4-((1-(4-fluorophenyl)-1H-pyrazole)-4-sulfonamido)phenyl)ureido)-2-((1-(4-fluorophenyl)-1H-pyrazole)-4-sulfonamido)benzoic acid] | 3.13 µM (≈ 2.44 µg/mL)
CCCCc1ccc(S(=O)(=O)Nc2ccc(NC(=O)Nc3ccc(NS(=O)(=O)c4ccc(CCCC)cc4)c(C(=O)O)c3)cc2C(=O)O)cc1 [Compound 15] | 2.21 µM (≈ 1.6 µg/mL)
O=C(Nc1ccc(NC(=O)C(=O)NCc2ccc(Cl)cc2)c(C(=O)O)c1)Nc1ccc(NC(=O)C(=O)NCc2ccc(Cl)cc2)c(C(=O)O)c1 [Compound 17, 5,5′-(carbonylbis(azanediyl))bis(2-(2-((4-chlorobenzyl)amino)-2-oxoacetamido)benzoic acid)] | 0.0245 µM (≈ 0.0177 µg/mL)
O=C(Nc1ccc(NC(=O)C(=O)NCCc2ccc(Cl)cc2)c(C(=O)O)c1)Nc1ccc(NC(=O)C(=O)NCCc2ccc(Cl)cc2)c(C(=O)O)c1 [Compound 19] | > 3.13 µM
CCCCc1ccc(S(=O)(=O)Nc2ccc(NC(=O)CCNC(=O)c3ccc(NS(=O)(=O)c4ccc(CCCC)cc4)c(C(=O)O)c3)cc2C(=O)O)cc1 [Compound 20, 2-((4-butylphenyl)sulfonamido)-5-(3-(4-((4-butylphenyl)sulfonamido)-3-carboxy-benzamido)propanamido)benzoic acid] | 0.112 µM (≈ 0.0872 µg/mL)
CCCCc1ccc(S(=O)(=O)Nc2ccc(NC(=O)CCNC(=O)c3ccc(NS(=O)(=O)c4ccc(CCOC)cc4)c(C(O)O)c3)cc2C(=O)O)cc1 [Compound 21] | 0.782 µM (≈ 0.612 µg/mL)
CCCCc1ccc(S(=O)(=O)Nc2ccc(NC(=O)C[C@H](C)NC(=O)c3ccc(NS(=O)(=O)c4ccc(CCCC)cc4)c(C(O)O)c3)cc2C(=O)O)cc1 [Compound 22] | 0.782 µM (≈ 0.622 µg/mL)
O=C(CCNC(=O)c1ccc(NS(=O)(=O)c2cnn(-c3ccc(Cl)cc3)c2)c(C(O)O)c1)Nc1ccc(NS(=O)(=O)c2cnn(-c3ccc(Cl)cc3)c2)c(C(=O)O)c1 [Compound 23] | 0.098 µM (≈ 0.0852 µg/mL)
